According to ChEMBL document CHEMBL3091423, “Synthesis, antioxidant capacity, and structure-activity relationships of tri-O-methylnorbergenin analogues on tyrosinase inhibition” (Bioorg Med Chem Lett, 2013):
pIC50, pKi: −log10 of the molar value.

Assays:
[1] = target: T1, Tyrosinase (Agaricus bisporus, UniProt O42713); assay: Inhibition of mushroom tyrosinase using L-tyrosine as substrate by Dixon plot analysis
T1 sequence (O42713 whole entry): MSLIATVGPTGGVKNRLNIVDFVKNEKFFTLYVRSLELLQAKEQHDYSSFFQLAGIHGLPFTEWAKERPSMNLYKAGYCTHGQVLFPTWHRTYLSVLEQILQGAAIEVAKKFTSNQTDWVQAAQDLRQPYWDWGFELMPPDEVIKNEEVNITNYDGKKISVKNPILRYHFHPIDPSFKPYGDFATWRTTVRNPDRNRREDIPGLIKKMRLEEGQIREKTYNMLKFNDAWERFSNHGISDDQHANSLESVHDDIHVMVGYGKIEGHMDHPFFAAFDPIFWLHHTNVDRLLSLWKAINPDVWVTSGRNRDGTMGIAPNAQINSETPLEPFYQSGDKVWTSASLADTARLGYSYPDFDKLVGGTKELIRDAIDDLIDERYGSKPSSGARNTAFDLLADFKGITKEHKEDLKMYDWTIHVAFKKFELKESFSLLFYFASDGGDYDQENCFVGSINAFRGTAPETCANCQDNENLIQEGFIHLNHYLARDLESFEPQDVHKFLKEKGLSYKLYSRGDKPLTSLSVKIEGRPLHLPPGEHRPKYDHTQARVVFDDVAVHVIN

[2] = target: T1, Tyrosinase; assay: Mixed inhibition of mushroom tyrosinase using L-tyrosine as substrate by Dixon/Cornish-Bowden plot analysis
[3] = target: T1, Tyrosinase
Description: (§1) Inhibition of mushroom tyrosinase using L-tyrosine as substrate preincubated for 10 mins followed by enzyme addition measured after 20 mins by microplate reader analysis

[4] = target: T2, Tyrosinase (Agaricus bisporus) (UniProt O42713)
T2 sequence (whole entry): T1 sequence (O42713 whole entry)
Description: as §1

[5] = target: T1, Tyrosinase; assay: Uncompetitive inhibition of mushroom tyrosinase using L-tyrosine as substrate by Dixon/Cornish-Bowden plot analysis

Compound	pIC50 [3]	other results
O=C(O)c1ccc(O)cc1 [PARABEN]	< 4.00	
COc1cc(C(=O)OC[C@H]2O[C@H]3c4c(cc(OC)c(OC)c4OC)C(=O)O[C@@H]3[C@@H](O)[C@@H]2O)cc(OC)c1O	< 4.00	
COc1cc(OC)cc(C(=O)OC[C@H]2O[C@H]3c4c(cc(OC)c(OC)c4OC)C(=O)O[C@@H]3[C@@H](O)[C@@H]2O)c1	< 4.00	
O=C(O)c1ccccc1 [BENZOIC ACID]	< 4.00	
COc1c(O)cc2c(c1O)[C@@H]1O[C@H](CO)[C@@H](O)[C@H](O)[C@H]1OC2=O [BERGENIN]	< 4.00	
COc1ccc(C(=O)OC[C@H]2O[C@H]3c4c(cc(OC)c(OC)c4OC)C(=O)O[C@@H]3[C@@H](O)[C@@H]2O)cc1	< 4.00	
COc1cc(OC)cc(C(=O)O)c1 [3,5-DIMETHOXYBENZOIC ACID]	< 4.00	
COc1ccc(C(=O)O)cc1OC [VERATRIC ACID]	< 4.00	
COc1cc(C(=O)O)cc(OC)c1O [SYRINGIC ACID]	< 4.00	
COc1ccc(C(=O)O)cc1 [p-ANISIC ACID]	< 4.00	
O=C(O)c1ccc(O)c(O)c1 [PROTOCATECHUIC ACID]	< 4.00	
COc1cc2c(c(OC)c1OC)[C@H]1O[C@@H](CO)[C@H](O)[C@@H](O)[C@@H]1OC2=O	< 4.00	

The next lines start with results.

pIC50 [3]	Compound	other results
4.50	COc1cc2c(c(OC)c1OC)[C@@H]1O[C@H](COC(=O)c3ccc(O)cc3)[C@@H](O)[C@H](O)[C@H]1OC2=O	pKi [1]: 4.13; pKi [2]: 3.92; inhibition [4]: Dose-dependent effect
< 4.00	COc1cc(C(=O)OC[C@H]2O[C@H]3c4c(cc(OC)c(OC)c4OC)C(=O)O[C@@H]3[C@@H](O)[C@@H]2O)ccc1O	
4.41	COc1ccc(C(=O)OC[C@H]2O[C@H]3c4c(cc(OC)c(OC)c4OC)C(=O)O[C@@H]3[C@@H](O)[C@@H]2O)cc1O	pKi [5]: 3.97; inhibition [4]: Dose-dependent effect
< 4.00	COc1cc2c(c(OC)c1OC)[C@@H]1O[C@H](COC(=O)c3ccccc3)[C@@H](O)[C@H](O)[C@H]1OC2=O	
< 4.00	COc1ccc(C(=O)OC[C@H]2O[C@H]3c4c(cc(OC)c(OC)c4OC)C(=O)O[C@@H]3[C@@H](O)[C@@H]2O)cc1OC	
4.76	COc1c(O)cc2c(c1O)[C@@H]1O[C@H](COC(=O)c3ccc(O)c(O)c3)[C@@H](O)[C@H](O)[C@H]1OC2=O	
< 4.00	COc1ccc(C(=O)O)cc1O [ISOVANILLIC ACID]	
5.04	COc1cc2c(c(OC)c1OC)[C@@H]1O[C@H](COC(=O)c3ccc(O)c(O)c3)[C@@H](O)[C@H](O)[C@H]1OC2=O	pKi [1]: 5.35; pKi [2]: 5.14; inhibition [4]: Dose-dependent effect
